# In US9573920B2, “Compound, medicine, anti-inflammatory, cosmetic, food and drink, and method for producing compound” (Amino Up Chemical Co., Ltd., priority 2013, dated 2017):
# Key:
# [1] = system: VEGF (VEGF-A/Vasculotropin); assay: cytokine/chemokine array (in vitro), VEGF; format: cell-based, rat; details: (+) IL-1β 1 nM, Pa5 20 μM
# Experimental: (§1) In like manner with Example 4, liver cells were isolated from male Wistar rats by a collagenase perfusion method. The isolated liver cells were suspended in a medium (similar to that in Example 4) at 1.2×10^6 cells/mL, seeded in 35 mm plastic dishes (similar to those in Example 4) (1 mL/dish), and cultured in an incubator with 5% CO2 at 37° C. After 5 hours, the medium was replaced with fresh WE free of any serum and hormone, and the cells were cultured overnight until before use of the cells for an experiment.
# (§2) On day 1 after the start of the culture, cells were subjected to replacement with fresh WE free of any serum and hormone, and IL-1β (similar to that in Example 4), and Pa5 extracted with methanol in Example 1 or Pa5′ extracted with methanol in Example 2 were added to the medium. The concentrations of IL-1β, Pa5, and Pa5′ in each medium were 1 nM, 20 μM, and 100 μM, respectively (Table 1). Then, the cells were cultured at 37° C., and the medium was collected 3 hours after the start of the culture. The collected medium was centrifuged for 1 minute at 5000 rpm to remove cellular debris, and the supernatant was used in an assay. The supernatant was preserved at −80° C. until performing the assay.
# (§3) The productions of the various inflammatory cytokines/chemokines were measured according to an accompanying protocol using Rat Cytokine Antibody Array (R&D Systems) (http://www.rndsystems.com/product_detail_objectname_ratcytokinearray.aspx) capable of detecting 29 kinds of cytokines/chemokines in Proteome Profiler® Antibody Array. In the measurement, 1 mL of the supernatant of the medium obtained as described above was used.
# (§4) In the above-described method, the 29 kinds of the cytokines/chemokines can be detected at once, and chemiluminescence on the filter of Proteome Profiler Antibody Array increases in proportion to the amount of each cytokine/chemokine. Thus, the chemiluminescence on the filter of Proteome Profiler Antibody Array was detected with LAS3000mini (GE Healthcare), subjected to densitometry analysis, and converted into a numeric value. The densitometry analysis was carried out with reference to http://www.hm6.aitai.ne.jp/˜maxcat/imageJ/technique.html#gels (the heading of “Analyzing Electrophoretic Gels”) using ImageJ software.
# sICAM-1 (CD54) = assay: cytokine/chemokine array (in vitro), sICAM-1; format: cell-based, rat; details: (+) IL-1β 1 nM, Pa5 20 μM
# Experimental: as §1, §2, §3, §4
# [2] = system: nitrogen monoxide (NO) production due to IL-1β; assay: NO production inhibitory action in IL-1β-stimulated rat liver cells (Griess method); format: cell-based; details: IL-1β 1 nM, 8 hours; for IC50: nitrite by Griess method, read-out: IC50 value (drug concentration at NO production of 50%)
# Experimental: Liver cells were isolated from male Wistar rats (200 to 250 g, Charles River) by a collagenase perfusion method (collagenase: Wako Pure Chemicals). The isolated liver cells were suspended in a medium at 6×10^5 cells/mL, seeded in 35 mm plastic dishes (Falcon Plastic) (2 mL/dish), and cultured in an incubator with 5% CO2 at 37° C. Williams' Medium E (WE) containing 10% newborn calf serum, HEPES (5 mM), penicillin (100 U/mL), streptomycin (0.1 mg/mL), dexamethasone (10 nM), and insulin (10 nM) was used as the medium. After 5 hours, the medium was replaced with fresh WE free of any serum and hormone, and the cells were cultured overnight until before use of the cells for an experiment.
# On day 1 after the start of the culture, cells were subjected to replacement with fresh WE free of any serum and hormone, and recombinant rat IL-1β (purity of 97% or more) (PeproTech, Rocky Hill, N.J., USA), and Pa5 extracted with methanol in Example 1 or negletein in the comparative example were added to the medium. In each medium, the concentration of IL-1β was 1 nM, the concentrations of Pa5 were 5, 10, and 20 μM, and the concentrations of negletein were 10, 20, and 40 μM (FIG. 1). The amount of NO in each medium was measured 8 hours after the addition of IL-1β, and Pa5 or negletein by a Griess method (Green L C et al, Anal Biochem 1982; 126: 131-138). More specifically, the amount of nitrite (stable metabolite of NO) in each medium was measured.
# Liver cells originated from rats were cultured in like manner with Example 4. On day 1 after the start of the culture, the cells were subjected to replacement with fresh WE free of any serum and hormone, and recombinant rat IL-1β (similar to that in Example 4) and Pa9 extracted with methanol in Example 3 were added to the medium. In each medium, the concentration of IL-1β was 1 nM, and the concentrations of Pa9 were 10 μM, 50 μM, and 100 μM (FIG. 5). The amount of NO in each medium was measured 8 hours after the addition of IL-1β and Pa9 in like manner with Example 4.
# MIG (CXCL9) = assay: cytokine/chemokine array (in vitro), MIG; format: cell-based, rat; details: (+) IL-1β 1 nM, Pa5 20 μM
# Experimental: as §1, §2, §3, §4
# [3] = system: various inflammatory cytokines/chemokines; assay: cytokine/chemokine arrays (in vitro), overall; format: cell-based; details: rat liver cells, IL-1β 1 nM, Pa5 20 μM, 3 hours
# Experimental: as §1, with “experiment. […]” for “experiment.”
# as §3, with “In the measurement, 1 mL of the supernatant of the medium obtained as described above was used.” left out
# In the above-described method, the 29 kinds of the cytokines/chemokines can be detected at once, and chemiluminescence on the filter of Proteome Profiler Antibody Array increases in proportion to the amount of each cytokine/chemokine. Thus, the chemiluminescence on the filter of Proteome Profiler Antibody Array was detected with LAS3000mini (GE Healthcare), subjected to densitometry analysis, and converted into a numeric value. […]
# CINC-3 = assay: cytokine/chemokine array (in vitro), CINC-3; format: cell-based, rat; details: (+) IL-1β 1 nM, Pa5 20 μM
# Experimental: as §1, §2, §3, §4
# CINC-2α/β = assay: cytokine/chemokine array (in vitro), CINC-2α/β; format: cell-based, rat; details: (+) IL-1β 1 nM, Pa5 20 μM
# Experimental: as §1, §2, §3, §4
# IL-17 = assay: cytokine/chemokine array (in vitro), IL-17; format: cell-based, rat; details: (+) IL-1β 1 nM, Pa5 20 μM
# Experimental: as §1, §2, §3, §4
# rat liver cells = assay: LDH activity of medium (cytotoxicity); format: cell-based; details: IL-1β 1 nM plus Pa5, 8 hours
# Experimental: Further, lactate dehydrogenase (LDH) activity was measured to investigate the cytotoxicity of Pa5. The lactate dehydrogenase (LDH) activity of each medium was measured using LDH Cytotoxicity Detection Kits (Takara Bio Inc.). LDH is an enzyme existing in a cell, and therefore migrates into a medium due to cell damage. Each medium was collected 8 hours after the addition of IL-1β, and Pa5 or negletein, and was used for measuring the activity. Actually, each sample (50 μl of medium) and Solution C (50 μl) in the kit were mixed and left standing at room temperature for 30 minutes, 1 M hydrochloric acid (25 μl) was added to stop the reaction, and the absorbance of the resultant at 490 nm was measured and compared with a calibration curve using LDH of known concentration to determine the LDH activity. The LDH activity of the whole cells on one dish (that is, whole-cell extract) was considered to be a positive control (positive control in FIG. 3), and was regarded as 100%. The medium was removed from each dish containing the liver cells, the cells were washed three times with phosphate buffered saline (PBS), then ultrasonically broken, and centrifuged at 10000×g for 3 minutes to then obtain a supernatant, which was used as a whole-cell extract, and the LDH activity of the cells was measured.
# Thymus Chemokine (CXCL7) = assay: cytokine/chemokine array (in vitro), Thymus Chemokine; format: cell-based, rat; details: (+) IL-1β 1 nM, Pa5 20 μM
# Experimental: as §1, §2, §3, §4
# Fractalkine (CX3CL1) = assay: cytokine/chemokine array (in vitro), Fractalkine; format: cell-based, rat; details: (+) IL-1β 1 nM, Pa5 20 μM
# Experimental: as §1, §2, §3, §4
smiles,measurement,setting,value
"COc1cc2c(c(O)c1OC)OC(c1ccccc1)CC2=O (stereo not shown) [Pa5, 8-hydroxy-6,7-dimethoxyflavanone]",VEGF (VEGF-A/Vasculotropin) (%),"[1]; 3 hours, (+) alone = 100.0",29.0%
same,"VEGF (VEGF-A/Vasculotropin) chemiluminescence densitometry, Average",[1]; medium at 3 hours,236.8
same,"VEGF (VEGF-A/Vasculotropin) chemiluminescence densitometry, first value",[1]; medium at 3 hours,241.4
same,"VEGF (VEGF-A/Vasculotropin) chemiluminescence densitometry, second value",[1]; medium at 3 hours,232.3
same,sICAM-1 (CD54) (%),"sICAM-1 (CD54); 3 hours, (+) alone = 100.0",0.0%
same,"sICAM-1 (CD54) chemiluminescence densitometry, Average",sICAM-1 (CD54); medium at 3 hours,0.0
same,"sICAM-1 (CD54) chemiluminescence densitometry, first value",sICAM-1 (CD54); medium at 3 hours,0.0
same,"sICAM-1 (CD54) chemiluminescence densitometry, second value",sICAM-1 (CD54); medium at 3 hours,0.0
same,"degree of NO production inhibitory action, comparison at the same addition concentration",[2]; 10 μM,higher than that of negletein
same,IC50,[2],9 µM
same,production of NO due to IL-1β,"[2]; Pa5 5, 10, 20 μM",dose-dependently inhibited
same,MIG (CXCL9) (%),"MIG (CXCL9); 3 hours, (+) alone = 100.0",0.0%
same,"MIG (CXCL9) chemiluminescence densitometry, Average",MIG (CXCL9); medium at 3 hours,0.0
same,"MIG (CXCL9) chemiluminescence densitometry, first value",MIG (CXCL9); medium at 3 hours,0.0
same,"MIG (CXCL9) chemiluminescence densitometry, second value",MIG (CXCL9); medium at 3 hours,0.0
same,induction of various cytokines/chemokines,[3],strongly inhibit
same,CINC-3 (%),"CINC-3; 3 hours, (+) alone = 100.0",0.6%
same,"CINC-3 chemiluminescence densitometry, Average",CINC-3; medium at 3 hours,17.1
same,"CINC-3 chemiluminescence densitometry, first value",CINC-3; medium at 3 hours,16.1
same,"CINC-3 chemiluminescence densitometry, second value",CINC-3; medium at 3 hours,18.1
same,CINC-2α/β (%),"CINC-2α/β; 3 hours, (+) alone = 100.0",2.8%
same,"CINC-2α/β chemiluminescence densitometry, Average",CINC-2α/β; medium at 3 hours,170.2
same,"CINC-2α/β chemiluminescence densitometry, first value",CINC-2α/β; medium at 3 hours,209.7
same,"CINC-2α/β chemiluminescence densitometry, second value",CINC-2α/β; medium at 3 hours,130.6
same,IL-17 (%),"IL-17; 3 hours, (+) alone = 100.0",0.0%
same,"IL-17 chemiluminescence densitometry, Average",IL-17; medium at 3 hours,0.0
same,"IL-17 chemiluminescence densitometry, first value",IL-17; medium at 3 hours,0.0
same,"IL-17 chemiluminescence densitometry, second value",IL-17; medium at 3 hours,0.0
same,LDH activity of medium,rat liver cells,equivalent to that in the case of adding IL-1β
same,cytotoxicity (from LDH activity),rat liver cells,no cytotoxicity
same,Thymus Chemokine (CXCL7) (%),"Thymus Chemokine (CXCL7); 3 hours, (+) alone = 100.0",0.0%
same,"Thymus Chemokine (CXCL7) chemiluminescence densitometry, Average",Thymus Chemokine (CXCL7); medium at 3 hours,0.0
same,"Thymus Chemokine (CXCL7) chemiluminescence densitometry, first value",Thymus Chemokine (CXCL7); medium at 3 hours,0.0
same,"Thymus Chemokine (CXCL7) chemiluminescence densitometry, second value",Thymus Chemokine (CXCL7); medium at 3 hours,0.0
same,Fractakine (CX3CL1) (%),"Fractalkine (CX3CL1); 3 hours, (+) alone = 100.0",0.0%
same,"Fractakine (CX3CL1) chemiluminescence densitometry, Average",Fractalkine (CX3CL1); medium at 3 hours,0.0
same,"Fractakine (CX3CL1) chemiluminescence densitometry, first value",Fractalkine (CX3CL1); medium at 3 hours,0.0
same,"Fractakine (CX3CL1) chemiluminescence densitometry, second value",Fractalkine (CX3CL1); medium at 3 hours,0.0
"O=c1ccc2cc(O)c(O)cc2o1 [Pa9, esculetin]",IC50,[2],32 µM
same,production of NO due to IL-1β,"[2]; Pa9 10, 50, 100 μM",dose-dependently inhibited
